# Test results reported in patent publication US20040214799A1, “Cancerous metastasis inhibitors containing carbacyclic phosphatidic acid derivatives” (priority 2001, published 2004).
# Assays:
# MM1 cells [1] = assay: Measurement of intracellular cAMP in MM1 cells; assay type: cell-based, rat; settings: 25 μM cPA or 10 μM Forskolin, pretreated with 1 mM IBMX
# Experimental: After a certain time period, 10% ice-cooled TCA was added to stop the reaction. The centrifuged supernatant was washed 4 times with water-saturated diethylether to remove TCA, and then placed under nitrogen gas flow at 60° C. to remove the solvent completely. cAMP in the resultant sample was measured using a cyclic AMP [^3H] assay system (Amersham).
# MM1 cells [2] = settings: Int. J. Cancer 81, 918-922 (1999), cited from earlier work
# MM1 cells [3] = settings: reported by Mukai et al., Int. J. Cancer 81, 918-922 (1999); cited from earlier work
# HT-1080 cells = settings: Mukai et al., Int. J. Cancer 81, 918-922 (1999); cited from earlier work
structure (smiles),measurement,setting,value
"CCCCCCCCCCCCCCCC(=O)OC[C@@H]1COP(=O)(O)O1 [cPA-5, Pal-cPA, reference compound]",change of intracellular cAMP concentration (in words),MM1 cells [1],could not be confirmed
same,invasion suppressing action on LPA-induced invasion (in words),MM1 cells [2]; reported by Mukai et al.,strongly suppress
same,suppressed LPA-induced invasion by,MM1 cells [2]; studied by Mukai et al.,approximately 85%
same,suppression of FBS-induced invasion (in words),MM1 cells [3],strongly suppress
same,suppression of serum/LPA-independent invasion of HT-1080 cells (in words),HT-1080 cells,suppressed
